Literature values, collected in US20090023742A1, “THIAZOLONES FOR USE AS PI3 KINASE INHIBITORS” (priority 2006, published 2009).

Tested on: Class I PI3-kinases
Details: each of the four Class I PI3-kinases; read-out: IC50 values against each of the various Class I PI3-kinases

wortmannin
IC50: 1 to 10 nM
